The record followed here is patent EP0009655A1, “6-Amino substituted N-pyrrolyl-3-pyridazine amines, their preparation, and pharmaceutically antihypertensive compositions containing them” (priority 1978, dated 1980).

One data set deals with renal hypertensive dogs. The data set can be described thus: Antihypertensive activity in conscious renal hypertensive dogs (systolic arterial blood pressure, indirect method on the tail). Format: in vivo. As to conditions: for maximum systolic blood pressure drop / time of maximum systolic blood pressure drop / blood pressure drop after seven hours: dose of 2 mg/kg; for blood pressure drop after seven hours: seven hours after administration. The method, then: The antihypertensive activity of the compounds of the invention was shown in representative tests on spontaneous hypertensive rats and in renal hypertensive dogs. In representative experiments with renal hypertensive dogs, effective amounts(1 to 4 mg/kg) of compounds of examples 3, 4, 5, 6, 8, 13, 14 and 15 were administered p.o. to the conscious hypertensive animals. The systolic arterial blood pressure was measured by the indirect method on the tail before and 1, 3, 5 and 7 hours after treatment.
The drop of the systolic blood pressure ranged between 20 and 70 mm Hg, depending on the specific compound tested and on the time at which the blood pressure was observed. In general the antihypertensive effect started about 3 hours after treatment and the maximum effect was still persistent 7 hours after treatment.

For data set [1], the system named is spontaneous hypertensive rats (MHR: Milano hypertensive rats). The data set can be described thus: Antihypertensive activity in spontaneous hypertensive rats (systolic blood pressure). Format: in vivo. As to conditions: dose of 5 mg/kg.
Data set [2] can be described thus: Acute toxicity, LD50 p.o. The conditions noted are these: mouse, in vivo, po.

As a reminder, the LD50 is the dose at which mortality reaches 50%.

As for `Cc1ccc(C)n1Nc1ccc(N2CCOCC2)nn1` [Example 3, N-(2,5-Dimethyl-1H-pyrrol-1-yl)-6-morpholino-3-pyridazineamine], the “drop of the systolic blood pressure” value in the data set with renal hypertensive dogs (1 mg/kg p.o.) was found to be 50 mm Hg. Further, the “drop of the systolic blood pressure” value with renal hypertensive dogs (4 mg/kg p.o.) was determined as 70 mm Hg. Moreover, in the data set with renal hypertensive dogs, the “maximum systolic blood pressure drop” value is recorded as 52 mm Hg, the “time of maximum systolic blood pressure drop” value is “about three” and the “blood pressure drop after seven hours” value is listed as 48 mm Hg. The same compound displayed a blood pressure drop in data set [1] of 38 mm Hg. Moreover, the LD50 in data set [2] was roughly 800 mg/kg.

For `NNc1nncc2ccccc12` [hydralazine, 1-hydrazinophthalazine, reference compound], in the data set with renal hypertensive dogs, the “maximum systolic blood pressure drop” value was found to be 41 mm Hg, the “time of maximum systolic blood pressure drop” value is reported as “about one” and the “blood pressure drop after seven hours” value is given as 29 mm Hg.
